Measurements reported in patent publication US11524938B2, “Aromatic sulfonamide derivatives” (Bayer Pharma Aktiengesellschaft, priority 2016, dated 2022).
Several values for one entry are separate records, joined by “and”; a condition that tells them apart may be missing. Identical values can stand only once.

Key:
endogenous P2X4 channels = molecular target: T1, endogenous P2X4 channels (Homo sapiens, UniProt Q99571); test: Human Monocyte P2X4 Assay (FLIPR); assay type: cell-based; details: primary human monocytes, 3 μM BzATP, one value per donor
T1 construct: measure calcium influx through endogenous P2X4 channels into primary human monocytes
T1 sequence (Q99571 1-388): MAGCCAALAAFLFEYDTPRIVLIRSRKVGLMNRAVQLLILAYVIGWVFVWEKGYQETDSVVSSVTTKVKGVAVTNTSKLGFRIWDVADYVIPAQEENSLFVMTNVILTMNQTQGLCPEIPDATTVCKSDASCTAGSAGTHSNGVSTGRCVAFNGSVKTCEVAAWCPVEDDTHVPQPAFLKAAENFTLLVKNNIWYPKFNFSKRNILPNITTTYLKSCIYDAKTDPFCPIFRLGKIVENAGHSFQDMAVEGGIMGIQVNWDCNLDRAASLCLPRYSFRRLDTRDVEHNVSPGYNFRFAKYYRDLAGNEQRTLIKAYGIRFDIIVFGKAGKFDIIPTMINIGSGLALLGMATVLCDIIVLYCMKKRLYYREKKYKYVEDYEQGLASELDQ
Procedure: The principle of the assay is to measure calcium influx through endogenous P2X4 channels into primary human monocytes, following activation by 2′,3′-O-(4-benzoyl-benzoyl)-ATP (Bz-ATP). Intracellular calcium concentration changes were measured with a Flipr® (Molecular Devices) device using a calcium sensitive dye (Fluo-8). In primary monocytes P2X4 is located at the lysosome membrane, therefore exocytosis has to be triggered to expose P2X4 at the cellular membrane.
Human peripheral blood mononuclear cells (PBMCs) from anticoagulated blood (blood cells, BC) were isolated via density gradient centrifugation. Whole blood was diluted 1:3 with PBS. Samples of 30 mL were layered carefully on top of 15 mL Biocoll (BIOCHROM) in 50 mL centrifuge tubes (Falcon). Tubes were centrifuged at 914×g for 25 min at RT without brake. The PBMC layer was removed with a 10 mL pipette and transferred into tubes with ice-cold PBS in a total volume of 50 mL. Cells were washed twice by pelleting at 300×g at 4° C., for 10 min and for 5 min respectively. PBMCs were re-suspended in 10 mL medium (X-vivo, Biozym Scientific) and counted in a Neubauer chamber.
Monocytes were isolated by negative selection using the Monocyte isolation kit II from Miltenyi (#130-091-153) according to the instructions. Isolation should be done fast and cells and solutions should be kept on ice at any time. PBMCs in batches of 10 exp8 cells were pelleted (300×g, 10 min) and re-suspended with 300 μL MACS buffer in a 50 mL Falcon tube. FcR Blocking reagent (100 μl) and Biotin-Ab (100 μl) were added, mixed and incubated on ice for 10 min. MACS buffer (300 μL) and anti-Biotin Micro-beads (100 μL) were added, mixed and incubated on ice for 15 min. Cells were washed by pelleting (300×g for 10 min) and re-suspended in 500 μL MACS buffer. For each batch one separation column was placed in the MACS separator and rinsed with 3 mL MACS buffer. The cell suspension was added to the column, followed by 3×3 mL MACS buffer for washing, and the eluent containing the monocytes was collected. Cells were pelleted (300×g for 10 min), re-suspended in X-vivo medium and counted. Monocytes were seeded into fibronectin-coated micro-plates (384-well, black, flat transparent bottom; Corning #3848) at a density of 30,000 cells/well in 50 μL, and cultivated over night (37° C., 5% CO2).
Test substances were dissolved in 100% DMSO at a stock concentration of 10 mM and stored at −20° C. in aliquots. Serial dilutions (2×) were prepared in DMSO and diluted 500× with assay buffer to generate the antagonist plate. In the Flipr measurement, 10 μL per well were transferred (4× dilution) and a final top concentrations of 5 μM and 0.05% DMSO were obtained in the assay. Agonist BzATP was stored at 10 mM in aliquots and diluted to an intermediate concentration of 15 μM to generate the agonist plate. In the Flipr measurement, 10 μL per well were transferred (5× dilution) so that a final assay concentration of 3 μM was obtained.
For the experiment, the medium of the cell plate was discarded manually and 70 μL/well loading buffer was added and incubated for 1 h (37° C., 5% CO2). Loading buffer contained HBSS (w/o calcium/magnesium), 10 mM Hepes pH 7.4, 5 μM Fluo-8 (AM) (Tebu-bio) and 50 mM methylamine (Sigma) to trigger exocytosis. Loading buffer was discarded manually and 30 μL/well low-calcium assay buffer (5 mM KCl, 145 mM NaCl, 0.5 mM CaCl2, 13 mM glucose, 10 mM Hepes pH 7.4) was added. The antagonist plate was transferred (10 μL/well) and after 15 min at RT the agonist plate (10 μL/well) was transferred.
Agonist addition was recorded for 240 seconds after a 10 second baseline. For analysis, a baseline correction was applied, and the maximum of the curve was extracted. Data were normalized towards 0% inhibition (signal at 3 μM BzATP) and 100% inhibition (absence of BzATP stimulation) and fitted with a four-parameter sigmoidal inhibition curve using Prism GraphPad to obtain IC50 values.

C57BL/6 mice = test: CFA Inflammation Model in Mice with Pain Behaviour Read Out; assay type: in vivo, mouse; details: oral 0.3, 1, 3 mg/kg, day 2 post-CFA, 1 h after treatment, vs vehicle
Procedure: Wild type female C57BL/6 mice (Taconic) received intraplantar injection of complete Freund's adjuvant (CFA) (30 μL, 1 mg/mL, Sigma) into the left hind paw under isoflurane anesthesia. Animals were administered orally with example 326 (0.3, 1, and 3 mg/kg, n=10/group) on day 2 post-CFA injection. Spontaneous pain-related behavior in freely moving animals was assessed using the automated dynamic weight bearing device (DWB, Bioseb, France) one hour after compound treatment according to published and validated protocols (Robinson et al., 2012; Tetreault et al., 2011; Gruen et al. 2014). For behavioral testing, the animal was placed inside a Plexiglas chamber in which the exerted pressure on the floor was measured. The animals were allowed to move freely within the apparatus for 5 min and subsequently pain behavior is recorded for a test period of another 5 min. The relative weight distribution is calculated by determining the ratio of the weight put on naïve (contralateral) vs. that put on the intraplantar CFA treated (ipsilateral) paws.
FIG. 3 as nonbinding explanatory example of compounds according to the invention represents the ratio of weight distribution in percent (y-axis) of mice orally treated with example 326 or vehicle 1 hour prior to weight distribution measurement. Each symbol represents the relative weight distribution for one mouse. […]

Row | Human P2X4 Monocytes (FLIPR Assay) Efficacy for different donors (endogenous P2X4 channels) | Structure (SMILES) | pain behavior (relative weight distribution, dynamic weight bearing) (C57BL/6 mice)
1 | 81% and 78% | N#Cc1cnn(-c2ccc(NC(=O)Cc3ccccc3Cl)cc2S(N)(=O)=O)c1 [Example 39, 2-(2-Chlorophenyl)-N-[4-(4-cyano-1H-pyrazol-1-yl)-3-sulfamoylphenyl]acetamide] | 
2 |  | NS(=O)(=O)c1cc(NC(=O)Cc2ccccc2Cl)ccc1-c1cnn(C(F)F)c1 [Example 326, 2-(2-Chlorophenyl)-N-{4-[1-(difluoromethyl)-1H-pyrazol-4-yl]-3-sulfamoylphenyl}acetamide] | significantly reduced pain behavior
